According to doi:10.1101/2020.08.04.236877v1 (biorxiv, 2020):

Legend:
Histamine H2 = Histamine H2 (Homo sapiens, UniProt P25021); test: radioligand binding assay; conditions: read-out: % inhibition or stimulation at 10 μM
[1] = target: Epidermal Growth Factor (EGF) (Homo sapiens, UniProt P00533); test: biochemical; conditions: read-out: % inhibition or stimulation (human)
Androgen (Testosterone) = Androgen (Testosterone) (Homo sapiens, UniProt P10275); test: radioligand binding assay; conditions: read-out: % inhibition at 10 μM
Glucocorticoid = Glucocorticoid (Homo sapiens, UniProt P04150); test: biochemical; conditions: read-out: % inhibition or stimulation (human)
[2] = target: Platelet Activating Factor (PAF) (Homo sapiens, UniProt P25105); test: biochemical; conditions: read-out: % inhibition or stimulation (human)
Serotonin 5-HT2B = Serotonin 5-HT2B (Homo sapiens, UniProt P41595); test: radioligand binding assay; conditions: read-out: % inhibition at 10 μM
Endothelin ETB = Endothelin ETB (Homo sapiens, UniProt P24530); test: biochemical; conditions: read-out: % inhibition or stimulation (human)
[3] = target: Serotonin (5-Hydroxytryptamine) 5-HT1A (Homo sapiens, UniProt P08908); test: biochemical; conditions: read-out: % inhibition or stimulation (human)
Adrenergic β2 = Adrenergic β2 (Homo sapiens, UniProt P07550); test: biochemical; conditions: read-out: % inhibition or stimulation (human)
Tachykinin NK1 = Tachykinin NK1 (Homo sapiens, UniProt P25103); test: biochemical; conditions: read-out: % inhibition or stimulation (human)
Bradykinin B1 = Bradykinin B1 (Homo sapiens, UniProt P46663); test: biochemical; conditions: read-out: % inhibition or stimulation (human)
Bradykinin B1, sequence (P46663 whole entry): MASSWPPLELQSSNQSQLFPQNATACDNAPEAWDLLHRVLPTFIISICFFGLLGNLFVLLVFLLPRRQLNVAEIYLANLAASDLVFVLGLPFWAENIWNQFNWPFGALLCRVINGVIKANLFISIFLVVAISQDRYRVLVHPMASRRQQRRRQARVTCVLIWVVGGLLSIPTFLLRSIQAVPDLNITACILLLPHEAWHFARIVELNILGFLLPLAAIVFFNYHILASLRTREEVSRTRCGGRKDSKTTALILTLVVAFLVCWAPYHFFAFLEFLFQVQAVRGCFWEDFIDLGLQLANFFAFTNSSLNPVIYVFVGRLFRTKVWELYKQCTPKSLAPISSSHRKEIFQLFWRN

Opiate κ (OP2, KOP) = Opiate κ (OP2, KOP) (Homo sapiens, UniProt P41145); test: biochemical; conditions: read-out: % inhibition or stimulation (human)
Endothelin ETA = Endothelin ETA (Homo sapiens, UniProt P25101); test: biochemical; conditions: read-out: % inhibition or stimulation (human)
Adrenergic α2A = Adrenergic α2A (Homo sapiens, UniProt P08913); test: biochemical; conditions: read-out: % inhibition or stimulation (human)
[4] = target: Transporter, Serotonin (5- Hydroxytryptamine) (SERT) (Homo sapiens, UniProt P31645); test: biochemical; conditions: read-out: % inhibition or stimulation (human)
Melatonin MT1 = Melatonin MT1 (Homo sapiens, UniProt P48039); test: biochemical; conditions: read-out: % inhibition or stimulation (human)
Estrogen ERα = Estrogen ERα (Homo sapiens, UniProt P03372); test: biochemical; conditions: read-out: % inhibition or stimulation (human)
Muscarinic M3 = Muscarinic M3 (Homo sapiens, UniProt P20309); test: biochemical; conditions: read-out: % inhibition or stimulation (human)
Muscarinic M3, sequence (P20309 whole entry): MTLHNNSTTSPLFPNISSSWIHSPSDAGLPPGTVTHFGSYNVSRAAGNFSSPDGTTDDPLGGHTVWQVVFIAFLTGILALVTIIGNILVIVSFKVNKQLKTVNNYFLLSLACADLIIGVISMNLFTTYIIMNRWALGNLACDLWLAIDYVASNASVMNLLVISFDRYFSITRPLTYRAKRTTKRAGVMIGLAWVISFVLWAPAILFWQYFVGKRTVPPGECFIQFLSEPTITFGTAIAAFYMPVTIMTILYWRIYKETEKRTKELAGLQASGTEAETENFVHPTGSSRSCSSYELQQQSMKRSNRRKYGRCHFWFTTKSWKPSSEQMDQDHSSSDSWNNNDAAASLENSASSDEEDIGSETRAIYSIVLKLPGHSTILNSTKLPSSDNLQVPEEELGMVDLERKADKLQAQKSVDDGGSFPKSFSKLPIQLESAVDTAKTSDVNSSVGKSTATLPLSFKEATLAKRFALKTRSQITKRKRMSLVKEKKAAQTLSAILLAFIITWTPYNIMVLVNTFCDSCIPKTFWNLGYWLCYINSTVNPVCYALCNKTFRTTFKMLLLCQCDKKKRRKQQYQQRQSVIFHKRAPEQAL

[5] = target: Nicotinic Acetylcholine α3β4 (Homo sapiens, UniProt P30926+P32297); test: biochemical; conditions: read-out: % inhibition or stimulation (human)
Interleukin IL-1 R1 = Interleukin IL-1 R1 (Homo sapiens, UniProt P14778); test: biochemical; conditions: read-out: % inhibition or stimulation (human)
Interleukin IL-1 R1, sequence (P14778 whole entry): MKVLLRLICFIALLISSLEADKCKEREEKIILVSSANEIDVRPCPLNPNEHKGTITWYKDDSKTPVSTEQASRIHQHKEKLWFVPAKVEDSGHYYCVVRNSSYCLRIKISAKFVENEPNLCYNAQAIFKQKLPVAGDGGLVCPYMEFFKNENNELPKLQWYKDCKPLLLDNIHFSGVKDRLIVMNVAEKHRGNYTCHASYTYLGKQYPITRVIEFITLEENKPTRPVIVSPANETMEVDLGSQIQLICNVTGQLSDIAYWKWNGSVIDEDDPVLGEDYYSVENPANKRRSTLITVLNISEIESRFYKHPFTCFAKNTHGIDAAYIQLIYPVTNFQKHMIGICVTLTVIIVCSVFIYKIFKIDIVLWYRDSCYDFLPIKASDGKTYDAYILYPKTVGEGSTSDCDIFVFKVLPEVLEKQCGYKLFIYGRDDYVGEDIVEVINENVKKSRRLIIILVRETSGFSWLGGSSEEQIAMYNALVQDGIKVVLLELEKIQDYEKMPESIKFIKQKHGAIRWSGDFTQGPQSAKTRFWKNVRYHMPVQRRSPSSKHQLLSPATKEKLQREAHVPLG

Opiate µ (OP3, MOP) = Opiate µ (OP3, MOP) (Homo sapiens, UniProt P35372); test: biochemical; conditions: read-out: % inhibition or stimulation (human)
Opiate µ (OP3, MOP), sequence (P35372 whole entry): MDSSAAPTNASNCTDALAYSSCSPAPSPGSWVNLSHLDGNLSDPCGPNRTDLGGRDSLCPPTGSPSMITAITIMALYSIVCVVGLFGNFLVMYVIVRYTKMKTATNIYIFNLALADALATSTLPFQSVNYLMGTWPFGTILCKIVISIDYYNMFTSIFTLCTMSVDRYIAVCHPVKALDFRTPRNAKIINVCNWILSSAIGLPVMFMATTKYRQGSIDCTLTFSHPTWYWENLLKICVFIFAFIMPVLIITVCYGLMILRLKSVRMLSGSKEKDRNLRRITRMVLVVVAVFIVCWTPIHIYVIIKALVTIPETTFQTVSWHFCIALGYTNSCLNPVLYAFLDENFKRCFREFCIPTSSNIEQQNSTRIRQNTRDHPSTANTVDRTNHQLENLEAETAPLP

Adenosine A2A = Adenosine A2A (Homo sapiens, UniProt P29274); test: biochemical; conditions: read-out: % inhibition or stimulation (human)
Adenosine A1 = Adenosine A1 (Homo sapiens, UniProt P30542); test: biochemical; conditions: read-out: % inhibition or stimulation (human)
Adrenergic α1B = Adrenergic α1B (Homo sapiens, UniProt P35368); test: biochemical; conditions: read-out: % inhibition or stimulation (human)
Cannabinoid CB1 = Cannabinoid CB1 (Homo sapiens, UniProt P21554); test: biochemical; conditions: read-out: % inhibition or stimulation (human)
Dopamine D1 = Dopamine D1 (Homo sapiens, UniProt P21728); test: biochemical; conditions: read-out: % inhibition or stimulation (human)
Prostanoid EP4 = Prostanoid EP4 (Homo sapiens, UniProt P35408); test: biochemical; conditions: read-out: % inhibition or stimulation (human)
Potassium Channel hERG = Potassium Channel hERG (Homo sapiens, UniProt Q12809); test: in vitro
Muscarinic M1 = Muscarinic M1 (Homo sapiens, UniProt P11229); test: biochemical; conditions: read-out: % inhibition or stimulation (human)
Dopamine D3 = Dopamine D3 (Homo sapiens, UniProt P35462); test: biochemical; conditions: read-out: % inhibition or stimulation (human)
Adrenergic α1D = Adrenergic α1D (Homo sapiens, UniProt P25100); test: biochemical; conditions: read-out: % inhibition or stimulation (human)
Histamine H3 = Histamine H3 (Homo sapiens, UniProt Q9Y5N1); test: biochemical; conditions: read-out: % inhibition or stimulation (human)
Opiate δ1 (OP1, DOP) = Opiate δ1 (OP1, DOP) (Homo sapiens, UniProt P41143); test: biochemical; conditions: read-out: % inhibition or stimulation (human)
Opiate δ1 (OP1, DOP), sequence (P41143 whole entry): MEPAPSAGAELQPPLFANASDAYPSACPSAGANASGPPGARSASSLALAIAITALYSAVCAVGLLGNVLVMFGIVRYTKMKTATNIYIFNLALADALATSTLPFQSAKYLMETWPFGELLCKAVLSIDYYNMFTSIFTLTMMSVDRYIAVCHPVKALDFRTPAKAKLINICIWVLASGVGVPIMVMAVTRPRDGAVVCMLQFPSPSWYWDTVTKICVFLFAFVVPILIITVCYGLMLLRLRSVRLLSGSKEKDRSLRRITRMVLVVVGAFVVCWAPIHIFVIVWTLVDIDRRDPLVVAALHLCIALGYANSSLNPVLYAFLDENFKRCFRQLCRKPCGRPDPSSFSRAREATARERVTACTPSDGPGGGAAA

Sigma σ1 = Sigma σ1 (Homo sapiens, UniProt Q99720); test: biochemical; conditions: read-out: % inhibition or stimulation (human)
Sigma σ1, sequence (Q99720 whole entry): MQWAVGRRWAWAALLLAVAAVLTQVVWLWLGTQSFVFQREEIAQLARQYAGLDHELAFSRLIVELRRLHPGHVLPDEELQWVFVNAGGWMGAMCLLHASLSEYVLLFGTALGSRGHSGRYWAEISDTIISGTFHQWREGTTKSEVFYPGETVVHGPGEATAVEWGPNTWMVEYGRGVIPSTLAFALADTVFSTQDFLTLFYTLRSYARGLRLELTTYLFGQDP

[6] = target: Nicotinic Acetylcholine α1, Bungarotoxin (Homo sapiens, UniProt P02708); test: biochemical; conditions: read-out: % inhibition or stimulation (human)
Neuropeptide Y Y1 = Neuropeptide Y Y1 (Homo sapiens, UniProt P25929); test: biochemical; conditions: read-out: % inhibition or stimulation (human)
Adrenergic β1 = Adrenergic β1 (Homo sapiens, UniProt P08588); test: biochemical; conditions: read-out: % inhibition or stimulation (human)
Adrenergic β1, sequence (P08588 whole entry): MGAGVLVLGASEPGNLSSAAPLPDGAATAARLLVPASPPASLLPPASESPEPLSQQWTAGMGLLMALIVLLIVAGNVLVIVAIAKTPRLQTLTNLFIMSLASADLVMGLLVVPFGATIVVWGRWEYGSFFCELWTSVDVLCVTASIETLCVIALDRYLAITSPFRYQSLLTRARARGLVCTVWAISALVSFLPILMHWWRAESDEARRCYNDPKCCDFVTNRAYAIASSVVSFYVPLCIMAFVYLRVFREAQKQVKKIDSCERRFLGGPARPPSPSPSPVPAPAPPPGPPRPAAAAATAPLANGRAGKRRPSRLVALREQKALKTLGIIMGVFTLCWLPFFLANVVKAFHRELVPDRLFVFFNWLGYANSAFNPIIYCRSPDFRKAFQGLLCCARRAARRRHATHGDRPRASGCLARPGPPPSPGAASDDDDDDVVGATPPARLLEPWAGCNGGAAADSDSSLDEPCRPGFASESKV

Muscarinic M2 = Muscarinic M2 (Homo sapiens, UniProt P08172); test: biochemical; conditions: read-out: % inhibition or stimulation (human)
Dopamine D2S = Dopamine D2S (Homo sapiens, UniProt P14416); test: biochemical; conditions: read-out: % inhibition or stimulation (human)
Dopamine D2S, sequence (P14416 whole entry): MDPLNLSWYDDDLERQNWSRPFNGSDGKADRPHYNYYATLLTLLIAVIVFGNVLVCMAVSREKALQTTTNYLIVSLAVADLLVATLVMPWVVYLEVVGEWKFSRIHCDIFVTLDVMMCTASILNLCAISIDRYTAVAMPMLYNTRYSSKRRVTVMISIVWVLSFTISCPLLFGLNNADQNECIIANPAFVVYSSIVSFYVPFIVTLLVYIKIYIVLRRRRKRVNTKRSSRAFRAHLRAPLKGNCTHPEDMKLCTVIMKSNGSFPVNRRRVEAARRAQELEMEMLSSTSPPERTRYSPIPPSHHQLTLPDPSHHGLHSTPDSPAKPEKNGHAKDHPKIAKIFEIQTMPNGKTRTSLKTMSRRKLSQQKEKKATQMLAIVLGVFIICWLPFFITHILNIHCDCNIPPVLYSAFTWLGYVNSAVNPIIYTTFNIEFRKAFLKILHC

Adenosine A3 = Adenosine A3 (Homo sapiens, UniProt P0DMS8); test: biochemical; conditions: read-out: % inhibition or stimulation (human)
Adrenergic α1A = Adrenergic α1A (Homo sapiens, UniProt P35348); test: biochemical; conditions: read-out: % inhibition or stimulation (human)
Bradykinin B2 = Bradykinin B2 (Homo sapiens, UniProt P30411); test: biochemical; conditions: read-out: % inhibition or stimulation (human)
Neuropeptide Y Y2 = Neuropeptide Y Y2 (Homo sapiens, UniProt P49146); test: biochemical; conditions: read-out: % inhibition or stimulation (human)
Neuropeptide Y Y2, sequence (P49146 whole entry): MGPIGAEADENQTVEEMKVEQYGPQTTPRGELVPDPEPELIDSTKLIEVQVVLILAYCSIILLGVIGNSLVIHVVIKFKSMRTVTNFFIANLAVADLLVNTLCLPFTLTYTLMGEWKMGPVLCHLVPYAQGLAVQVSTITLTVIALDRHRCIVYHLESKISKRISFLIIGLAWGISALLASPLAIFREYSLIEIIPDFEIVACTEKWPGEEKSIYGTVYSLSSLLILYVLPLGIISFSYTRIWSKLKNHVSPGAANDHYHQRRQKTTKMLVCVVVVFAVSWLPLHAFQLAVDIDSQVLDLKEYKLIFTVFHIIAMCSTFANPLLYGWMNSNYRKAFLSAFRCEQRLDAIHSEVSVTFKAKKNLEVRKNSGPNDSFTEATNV

Histamine H1 = Histamine H1 (Homo sapiens, UniProt P35367); test: biochemical; conditions: read-out: % inhibition or stimulation (human)
Histamine H1, sequence (P35367 whole entry): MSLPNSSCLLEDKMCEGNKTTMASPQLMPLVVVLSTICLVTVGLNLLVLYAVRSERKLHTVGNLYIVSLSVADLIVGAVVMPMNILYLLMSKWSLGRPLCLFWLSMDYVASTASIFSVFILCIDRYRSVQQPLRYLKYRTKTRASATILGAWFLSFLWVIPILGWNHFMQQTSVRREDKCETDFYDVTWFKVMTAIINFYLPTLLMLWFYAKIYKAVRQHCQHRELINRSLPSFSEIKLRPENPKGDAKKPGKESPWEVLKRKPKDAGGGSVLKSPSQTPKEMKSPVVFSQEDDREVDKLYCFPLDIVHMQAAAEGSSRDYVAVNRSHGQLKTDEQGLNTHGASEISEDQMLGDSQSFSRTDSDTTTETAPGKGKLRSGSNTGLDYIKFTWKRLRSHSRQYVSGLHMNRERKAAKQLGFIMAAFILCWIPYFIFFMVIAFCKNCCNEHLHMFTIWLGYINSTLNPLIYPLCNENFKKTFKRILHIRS

Dopamine D4.4 = Dopamine D4.4 (Homo sapiens, UniProt P21917); test: biochemical; conditions: read-out: % inhibition or stimulation (human)
[7] = target: Serotonin (5-Hydroxytryptamine) 5-HT3 (Homo sapiens, UniProt P46098); test: biochemical; conditions: read-out: % inhibition or stimulation (human)
[8] = target: Leukotriene, Cysteinyl CysLT1 (Homo sapiens, UniProt Q9Y271); test: biochemical; conditions: read-out: % inhibition or stimulation (human)
[9] = target: Transporter, Dopamine (DAT) (Homo sapiens, UniProt Q01959); test: radioligand binding assay; conditions: read-out: % inhibition at 10 μM
Transporter, Dopamine (DAT), sequence (Q01959 whole entry): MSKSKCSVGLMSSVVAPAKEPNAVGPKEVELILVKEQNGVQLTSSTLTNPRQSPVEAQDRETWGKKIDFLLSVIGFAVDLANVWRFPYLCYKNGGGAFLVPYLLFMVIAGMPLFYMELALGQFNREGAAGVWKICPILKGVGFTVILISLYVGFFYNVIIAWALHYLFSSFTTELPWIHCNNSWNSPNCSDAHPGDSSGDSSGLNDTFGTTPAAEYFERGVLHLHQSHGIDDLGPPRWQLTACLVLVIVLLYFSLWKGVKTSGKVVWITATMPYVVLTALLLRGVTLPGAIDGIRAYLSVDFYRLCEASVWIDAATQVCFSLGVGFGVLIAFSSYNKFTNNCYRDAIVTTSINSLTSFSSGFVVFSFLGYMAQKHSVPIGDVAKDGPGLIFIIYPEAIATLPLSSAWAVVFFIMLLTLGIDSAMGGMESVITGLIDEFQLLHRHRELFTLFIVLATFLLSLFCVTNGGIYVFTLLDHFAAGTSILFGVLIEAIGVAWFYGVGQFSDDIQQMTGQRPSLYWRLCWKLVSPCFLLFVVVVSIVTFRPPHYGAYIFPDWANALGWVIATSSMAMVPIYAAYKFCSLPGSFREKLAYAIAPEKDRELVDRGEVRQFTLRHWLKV

[10] = target: Transporter, Norepinephrine (NET) (Homo sapiens, UniProt P23975); test: radioligand binding assay; conditions: read-out: % inhibition at 10 μM

CC(C)(C)c1ccc(C2=C(/C=N/O)CCC2)cc1 [8n, (E)-2-(4-(tert-butyl)phenyl)cyclopent-1-ene-1-carbaldehyde oxime]
inhibition at 10 µM (Histamine H2): -54%
inhibition at 10 µM [1]: 2%
inhibition at 10 µM (Androgen (Testosterone)): 79%
inhibition at 10 µM (Glucocorticoid): -4%
inhibition at 10 µM [2]: -14%
inhibition at 10 µM (Serotonin 5-HT2B): 63%
inhibition at 10 µM (Endothelin ETB): 0%
inhibition at 10 µM [3]: -42%
inhibition at 10 µM (Adrenergic β2): 12%
inhibition at 10 µM (Tachykinin NK1): -2%
inhibition at 10 µM (Bradykinin B1): -3%
inhibition at 10 µM (Opiate κ (OP2, KOP)): 0%
inhibition at 10 µM (Endothelin ETA): 11%
inhibition at 10 µM (Adrenergic α2A): 14%
inhibition at 10 µM [4]: 13%
inhibition at 10 µM (Melatonin MT1): -3%
inhibition at 10 µM (Estrogen ERα): 6%
inhibition at 10 µM (Muscarinic M3): 9%
inhibition at 10 µM [5]: -1%
inhibition at 10 µM (Interleukin IL-1 R1): 19%
inhibition at 10 µM (Opiate µ (OP3, MOP)): 9%
inhibition at 10 µM (Adenosine A2A): 16%
inhibition at 10 µM (Adenosine A1): 33%
inhibition at 10 µM (Adrenergic α1B): -15%
inhibition at 10 µM (Cannabinoid CB1): 20%
inhibition at 10 µM (Dopamine D1): 30%
inhibition at 10 µM (Prostanoid EP4): 34%
inhibition at 10 µM (Potassium Channel hERG): 25%
inhibition at 10 µM (Muscarinic M1): 0%
inhibition at 10 µM (Dopamine D3): 23%
inhibition at 10 µM (Adrenergic α1D): 7%
inhibition at 10 µM (Histamine H3): 0%
inhibition at 10 µM (Opiate δ1 (OP1, DOP)): 7%
inhibition at 10 µM (Sigma σ1): 33%
inhibition at 10 µM [6]: 0%
inhibition at 10 µM (Neuropeptide Y Y1): -6%
inhibition at 10 µM (Adrenergic β1): 4%
inhibition at 10 µM (Muscarinic M2): 7%
inhibition at 10 µM (Dopamine D2S): 12%
inhibition at 10 µM (Adenosine A3): 45%
inhibition at 10 µM (Adrenergic α1A): 5%
inhibition at 10 µM (Bradykinin B2): -27%
inhibition at 10 µM (Neuropeptide Y Y2): -11%
inhibition at 10 µM (Histamine H1): 42%
inhibition at 10 µM (Dopamine D4.4): -15%
inhibition at 10 µM [7]: -5%
inhibition at 10 µM [8]: 25%
inhibition at 10 µM [9]: 86%
inhibition at 10 µM [10]: 75%
